# In the supplement of paper PMC10307832:
# Assays:
# Assay in all cases: relative viability (nuclei count vs DMSO), 5 days (fraction); higher = more cells survive
# Idelalisib + Dasatinib = compound: CC[C@H](Nc1ncnc2[nH]cnc12)c1nc2cccc(F)c2c(=O)n1-c1ccccc1 [Idelalisib] + Cc1nc(Nc2ncc(C(=O)Nc3c(C)cccc3Cl)s2)cc(N2CCN(CCO)CC2)n1 [Dasatinib] (partner 0.075 µM)
# Procedure, shortened: (§1)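 Lung cancer cell lines were pin-tool dosed in 1536-well plates on the day after seeding, with either a lone drug or a fixed anchor-drug dose plus five library-drug doses (not always all listed) in √10 steps. Nuclei were counted on 4× images after 5 days. Relative viability is the ratio of treated-well to vehicle-well nuclei counts, with each value a median of duplicate plates.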
# Idelalisib + Decitabine = compound: CC[C@H](Nc1ncnc2[nH]cnc12)c1nc2cccc(F)c2c(=O)n1-c1ccccc1 [Idelalisib] + Nc1ncn([C@H]2C[C@H](O)[C@@H](CO)O2)c(=O)n1 [Decitabine] (partner 2 µM)
# Procedure, shortened: as §1
# Pemetrexed + Trametinib = compound: Nc1nc2[nH]cc(CCc3ccc(C(=O)N[C@@H](CCC(=O)O)C(=O)O)cc3)c2c(=O)[nH]1 [Pemetrexed] + CC(=O)Nc1cccc(-n2c(=O)n(C3CC3)c(=O)c3c(Nc4ccc(I)cc4F)n(C)c(=O)c(C)c32)c1 [Trametinib] (partner 0.02 µM)
# Procedure, shortened: as §1
# Pemetrexed + Tozasertib = compound: Nc1nc2[nH]cc(CCc3ccc(C(=O)N[C@@H](CCC(=O)O)C(=O)O)cc3)c2c(=O)[nH]1 [Pemetrexed] + Cc1cc(Nc2cc(N3CCN(C)CC3)nc(Sc3ccc(NC(=O)C4CC4)cc3)n2)n[nH]1 [Tozasertib] (partner 0.1 µM)
# Procedure, shortened: as §1
Cell Line,relative viability (Idelalisib + Dasatinib; first compound 0.04 µM),relative viability (Idelalisib + Dasatinib; first compound 0.1265 µM),relative viability (Idelalisib + Dasatinib; first compound 0.4 µM),relative viability (Idelalisib + Dasatinib; first compound 1.265 µM),relative viability (Idelalisib + Dasatinib; first compound 4 µM),relative viability (Idelalisib + Decitabine; first compound 0.04 µM),relative viability (Idelalisib + Decitabine; first compound 0.1265 µM),relative viability (Idelalisib + Decitabine; first compound 0.4 µM),relative viability (Idelalisib + Decitabine; first compound 1.265 µM),relative viability (Idelalisib + Decitabine; first compound 4 µM),relative viability (Pemetrexed + Trametinib; first compound 0.002 µM),relative viability (Pemetrexed + Trametinib; first compound 0.006325 µM),relative viability (Pemetrexed + Trametinib; first compound 0.02 µM),relative viability (Pemetrexed + Trametinib; first compound 0.06325 µM),relative viability (Pemetrexed + Trametinib; first compound 0.2 µM),relative viability (Pemetrexed + Tozasertib; first compound 0.002 µM),relative viability (Pemetrexed + Tozasertib; first compound 0.006325 µM),relative viability (Pemetrexed + Tozasertib; first compound 0.02 µM),relative viability (Pemetrexed + Tozasertib; first compound 0.06325 µM),relative viability (Pemetrexed + Tozasertib; first compound 0.2 µM)
LU99A,0.528,0.617,0.428,0.61,0.646,0.876,0.843,0.777,1.02,0.914,0.496,0.451,0.572,0.467,0.538,0.259,0.325,0.338,0.272,0.249
SW 1573,0.508,0.475,0.503,0.324,0.376,0.462,0.6,0.537,0.261,0.38,0.511,0.521,0.572,0.474,0.577,0.241,0.197,0.201,0.139,0.178
COR-L23,0.442,0.42,0.388,0.455,0.417,0.489,0.49,0.46,0.471,0.401,0.581,0.569,0.733,0.206,0.152,0.229,0.196,0.197,0.12,0.105
NCI-H1755,0.399,0.456,0.312,0.366,0.338,0.724,0.637,0.729,0.7,0.803,0.737,0.809,0.775,0.731,0.732,0.575,0.571,0.619,0.615,0.458
LOU-NH91,0.599,0.561,0.482,0.42,0.542,0.789,0.84,0.79,0.78,0.816,0.754,0.759,0.782,0.682,0.638,0.656,0.676,0.706,0.54,0.366
A549,–,–,–,–,–,0.263,0.281,0.21,0.345,0.247,–,–,–,–,–,–,–,–,–,–
NCI-H1648,–,–,–,–,–,0.512,0.58,0.536,0.507,0.429,0.517,0.292,0.63,0.398,0.442,0.531,0.486,0.595,–,0.542
ABC-1,0.537,0.599,0.582,0.681,0.573,1.03,1.2,1.08,1.17,1.15,–,–,–,–,–,0.163,0.172,0.172,0.191,0.167
NCI-H1563,0.473,0.491,0.472,0.496,0.388,–,–,–,–,–,–,–,–,–,–,–,–,–,–,–
NCI-H1623,0.505,0.559,0.52,0.517,0.602,–,–,–,–,–,–,–,–,–,–,0.409,0.357,0.425,0.433,0.434
NCI-H2228,0.562,0.586,0.408,0.507,0.524,–,–,–,–,–,0.509,0.611,0.597,0.318,0.285,0.318,–,0.266,0.209,0.173
